ChEMBL document CHEMBL1135136, “Carbonic anhydrase inhibitors. Preparation of potent sulfonamides inhibitors incorporating bile acid tails” (Bioorg Med Chem Lett, 2002)

Assays:
[1] = molecular target: Carbonic anhydrase 2 (Homo sapiens, UniProt P00918)
Description: Inhibitory activity against human recombinant carbonic anhydrase II (CA2)

[2] = molecular target: T1, Carbonic anhydrase 4 (Bos taurus, UniProt Q95323)
T1 sequence (Q95323 whole entry): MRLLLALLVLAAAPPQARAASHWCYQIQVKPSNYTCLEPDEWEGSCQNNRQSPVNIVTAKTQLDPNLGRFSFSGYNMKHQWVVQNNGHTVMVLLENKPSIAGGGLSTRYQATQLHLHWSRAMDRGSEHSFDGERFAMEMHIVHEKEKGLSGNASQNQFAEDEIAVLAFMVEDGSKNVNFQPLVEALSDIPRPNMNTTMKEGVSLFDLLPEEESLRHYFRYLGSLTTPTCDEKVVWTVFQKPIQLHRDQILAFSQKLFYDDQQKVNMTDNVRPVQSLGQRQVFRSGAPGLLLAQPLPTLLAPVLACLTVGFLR
Description: Inhibitory activity against bovine carbonic anhydrase IV (CA4), obtained from bovine lung microsomes

[3] = molecular target: Carbonic anhydrase 1 (Homo sapiens, UniProt P00915)
Sequence of Carbonic anhydrase 1 (P00915 whole entry): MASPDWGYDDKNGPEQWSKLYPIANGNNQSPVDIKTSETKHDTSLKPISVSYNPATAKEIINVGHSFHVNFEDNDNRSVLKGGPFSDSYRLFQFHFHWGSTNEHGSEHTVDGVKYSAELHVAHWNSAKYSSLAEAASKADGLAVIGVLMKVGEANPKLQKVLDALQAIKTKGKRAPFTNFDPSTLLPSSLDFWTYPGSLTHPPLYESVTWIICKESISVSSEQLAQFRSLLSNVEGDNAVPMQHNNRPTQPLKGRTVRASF
Description: Inhibitory activity against human recombinant carbonic anhydrase I (CA1)

| Ki [1] | Ki [2] | Ki [3] | SMILES |
| --- | --- | --- | --- |
| 35 nM | 60 nM | 600 nM | C[C@H](CCC(=O)Nc1ccc(S(N)(=O)=O)cc1Br)[C@H]1CC[C@H]2[C@@H]3[C@H](O)C[C@@H]4C[C@H](O)CC[C@]4(C)[C@H]3C[C@H](O)[C@]12C |
| 86 nM | 220 nM | 3400 nM | C[C@H](CCC(=O)NCCc1ccc(S(N)(=O)=O)cc1)[C@H]1CC[C@H]2[C@@H]3[C@H](O)C[C@@H]4C[C@H](O)CC[C@]4(C)[C@H]3C[C@H](O)[C@]12C |
| 240 nM | 615 nM | 12000 nM | C[C@H](CCC(=O)NNc1ccc(S(N)(=O)=O)cc1)[C@H]1CC[C@H]2[C@@H]3[C@@H](O)C[C@@H]4C[C@H](O)CC[C@]4(C)[C@H]3CC[C@]12C |
| 47 nM | 110 nM | 415 nM | C[C@H](CCC(=O)Nc1ccc(S(N)(=O)=O)cc1I)[C@H]1CC[C@H]2[C@@H]3CC[C@@H]4C[C@H](O)CC[C@]4(C)[C@H]3C[C@H](O)[C@]12C |
| 80 nM | 300 nM | 1150 nM | C[C@H](CCC(=O)OCCc1ccc(S(N)(=O)=O)cc1)[C@H]1CC[C@H]2[C@@H]3[C@H](O)C[C@@H]4C[C@H](O)CC[C@]4(C)[C@H]3C[C@H](O)[C@]12C |
| 50 nM | 130 nM | 200 nM | C[C@H](CCC(=O)Nc1nnc(S(N)(=O)=O)s1)[C@H]1CC[C@H]2[C@@H]3CC[C@@H]4C[C@H](O)CC[C@]4(C)[C@H]3C[C@H](O)[C@]12C |
| 31 nM | 50 nM | 365 nM | C[C@H](CCC(=O)Nc1ccc(S(N)(=O)=O)cc1Br)[C@H]1CC[C@H]2[C@@H]3CC[C@@H]4C[C@H](O)CC[C@]4(C)[C@H]3C[C@H](O)[C@]12C |
| 97 nM | 280 nM | 1200 nM | C[C@H](CCC(=O)OCc1ccc(S(N)(=O)=O)cc1)[C@H]1CC[C@H]2[C@@H]3[C@H](O)C[C@@H]4C[C@H](O)CC[C@]4(C)[C@H]3C[C@H](O)[C@]12C |
| 82 nM | 168 nM | 970 nM | C[C@H](CCC(=O)Nc1ccc(S(N)(=O)=O)cc1Cl)[C@H]1CC[C@H]2[C@@H]3[C@H](O)C[C@@H]4C[C@H](O)CC[C@]4(C)[C@H]3C[C@H](O)[C@]12C |
| 186 nM | 420 nM | 20000 nM | C[C@H](CCC(=O)Nc1ccc(S(N)(=O)=O)cc1)[C@H]1CC[C@H]2[C@@H]3[C@H](O)C[C@@H]4C[C@H](O)CC[C@]4(C)[C@H]3CC[C@]12C |
| 80 nM | 150 nM | 950 nM | C[C@H](CCC(=O)Nc1ccc(S(N)(=O)=O)cc1Cl)[C@H]1CC[C@H]2[C@@H]3[C@H](O)C[C@@H]4C[C@H](O)CC[C@]4(C)[C@H]3CC[C@]12C |
| 0.9 nM | 16 nM | 48 nM | C[C@H](CCC(=O)Nc1nnc(S(N)(=O)=O)s1)[C@H]1CC[C@H]2[C@@H]3[C@@H](O)C[C@@H]4C[C@H](O)CC[C@]4(C)[C@H]3CC[C@]12C |
| 26 nM | 40 nM | 600 nM | C[C@H](CCC(=O)NCc1ccc(S(N)(=O)=O)cc1)[C@H]1CC[C@H]2[C@@H]3C(=O)C[C@@H]4CC(=O)CC[C@]4(C)[C@H]3CC(=O)[C@]12C |
| 50 nM | 205 nM | 420 nM | C[C@H](CCC(=O)Nc1nnc(S(N)(=O)=O)s1)[C@H]1CC[C@H]2[C@@H]3[C@H](O)C[C@@H]4C[C@H](O)CC[C@]4(C)[C@H]3C[C@H](O)[C@]12C |
| 21 nM | 40 nM | 550 nM | C[C@H](CCC(=O)NCc1ccc(S(N)(=O)=O)cc1)[C@H]1CC[C@H]2[C@@H]3[C@@H](O)C[C@@H]4C[C@H](O)CC[C@]4(C)[C@H]3CC[C@]12C |

The next lines start with the compound.

| SMILES | Ki [1] | Ki [2] | Ki [3] |
| --- | --- | --- | --- |
| C[C@H](CCC(=O)Nc1ccccc1S(N)(=O)=O)[C@H]1CC[C@H]2[C@@H]3CC[C@@H]4C[C@H](O)CC[C@]4(C)[C@H]3CC[C@]12C | 270 nM | 750 nM | 9200 nM |
| C[C@H](CCC(=O)Nc1ccc(S(N)(=O)=O)cc1Br)[C@H]1CC[C@H]2[C@@H]3CC[C@@H]4C[C@H](O)CC[C@]4(C)[C@H]3CC[C@]12C | 21 nM | 53 nM | 120 nM |
| C[C@H](CCC(=O)OCCOc1ccc2nc(S(N)(=O)=O)sc2c1)[C@H]1CC[C@H]2[C@@H]3CC[C@@H]4C[C@H](O)CC[C@]4(C)[C@H]3CC[C@]12C | 1.4 nM | 8 nM | 36 nM |
| C[C@H](CCC(=O)Nc1ccccc1S(N)(=O)=O)[C@H]1CC[C@H]2[C@@H]3C(=O)C[C@@H]4CC(=O)CC[C@]4(C)[C@H]3CC(=O)[C@]12C | 170 nM | 505 nM | 8100 nM |
| C[C@H](CCC(=O)Nc1cc(Cl)c(S(N)(=O)=O)cc1S(N)(=O)=O)[C@H]1CC[C@H]2[C@@H]3[C@H](O)C[C@@H]4C[C@H](O)CC[C@]4(C)[C@H]3CC[C@]12C | 62 nM | 143 nM | 300 nM |
| C[C@H](CCC(=O)Nc1c(S(N)(=O)=O)cc(S(N)(=O)=O)c(Cl)c1Cl)[C@H]1CC[C@H]2[C@@H]3CC[C@@H]4C[C@H](O)CC[C@]4(C)[C@H]3C[C@H](O)[C@]12C | 20 nM | 100 nM | 285 nM |
| C[C@H](CCC(=O)Nc1nnc(S(N)(=O)=O)s1)[C@H]1CC[C@H]2[C@@H]3CC[C@@H]4C[C@H](O)CC[C@]4(C)[C@H]3CC[C@]12C | 10 nM | 28 nM | 210 nM |
| C[C@H](CCC(=O)Nc1c(S(N)(=O)=O)cc(S(N)(=O)=O)c(Cl)c1Cl)[C@H]1CC[C@H]2[C@@H]3[C@H](O)C[C@@H]4C[C@H](O)CC[C@]4(C)[C@H]3C[C@H](O)[C@]12C | 21 nM | 97 nM | 400 nM |
| C[C@H](CCC(=O)/N=c1\sc(S(N)(=O)=O)nn1C)[C@H]1CC[C@H]2[C@@H]3[C@H](O)C[C@@H]4C[C@H](O)CC[C@]4(C)[C@H]3CC[C@]12C | 13 nM | 100 nM | 514 nM |
| C[C@H](CCC(=O)OCCc1ccc(S(N)(=O)=O)cc1)[C@H]1CC[C@H]2[C@@H]3[C@@H](O)C[C@@H]4C[C@H](O)CC[C@]4(C)[C@H]3CC[C@]12C | 58 nM | 160 nM | 350 nM |
| C[C@H](CCC(=O)Nc1cc(Cl)c(S(N)(=O)=O)cc1S(N)(=O)=O)[C@H]1CC[C@H]2[C@@H]3C(=O)C[C@@H]4CC(=O)CC[C@]4(C)[C@H]3CC(=O)[C@]12C | 11 nM | 50 nM | 77 nM |
| C[C@H](CCC(=O)/N=c1\sc(S(N)(=O)=O)nn1C)[C@H]1CC[C@H]2[C@@H]3CC[C@@H]4C[C@H](O)CC[C@]4(C)[C@H]3C[C@H](O)[C@]12C | 11 nM | 63 nM | 240 nM |
| C[C@H](CCC(=O)OCCOc1ccc2nc(S(N)(=O)=O)sc2c1)[C@H]1CC[C@H]2[C@@H]3C(=O)C[C@@H]4CC(=O)CC[C@]4(C)[C@H]3CC(=O)[C@]12C | 0.8 nM | 6 nM | 30 nM |
